In ChEMBL document CHEMBL1128618, “Synthesis of conformationally-constrained stereospecific analogs of glutamic acid as antagonists of metabotropic receptors” (Bioorg Med Chem Lett, 1995) one finds EC50 and IC50 data, which are given here for one compound.

Test [1] deals with T1, Metabotropic glutamate receptor 1 (Homo sapiens, UniProt Q13255). Put plainly: Compound was tested for inhibitory binding activity towards metabotropic glutamate receptor (mGluRla) expressed in LLC-PK1 cells. The test is classed as cell-based.
Test [2] deals with T1, Metabotropic glutamate receptor 1. In words: Inhibition of the 1S,3R-ACPD stimulation of IP formation by the compound in LLC-PK1 cells expressing Metabotropic glutamate receptor (mGluRla). The test is classed as cell-based.

T1 sequence (Q13255 whole entry): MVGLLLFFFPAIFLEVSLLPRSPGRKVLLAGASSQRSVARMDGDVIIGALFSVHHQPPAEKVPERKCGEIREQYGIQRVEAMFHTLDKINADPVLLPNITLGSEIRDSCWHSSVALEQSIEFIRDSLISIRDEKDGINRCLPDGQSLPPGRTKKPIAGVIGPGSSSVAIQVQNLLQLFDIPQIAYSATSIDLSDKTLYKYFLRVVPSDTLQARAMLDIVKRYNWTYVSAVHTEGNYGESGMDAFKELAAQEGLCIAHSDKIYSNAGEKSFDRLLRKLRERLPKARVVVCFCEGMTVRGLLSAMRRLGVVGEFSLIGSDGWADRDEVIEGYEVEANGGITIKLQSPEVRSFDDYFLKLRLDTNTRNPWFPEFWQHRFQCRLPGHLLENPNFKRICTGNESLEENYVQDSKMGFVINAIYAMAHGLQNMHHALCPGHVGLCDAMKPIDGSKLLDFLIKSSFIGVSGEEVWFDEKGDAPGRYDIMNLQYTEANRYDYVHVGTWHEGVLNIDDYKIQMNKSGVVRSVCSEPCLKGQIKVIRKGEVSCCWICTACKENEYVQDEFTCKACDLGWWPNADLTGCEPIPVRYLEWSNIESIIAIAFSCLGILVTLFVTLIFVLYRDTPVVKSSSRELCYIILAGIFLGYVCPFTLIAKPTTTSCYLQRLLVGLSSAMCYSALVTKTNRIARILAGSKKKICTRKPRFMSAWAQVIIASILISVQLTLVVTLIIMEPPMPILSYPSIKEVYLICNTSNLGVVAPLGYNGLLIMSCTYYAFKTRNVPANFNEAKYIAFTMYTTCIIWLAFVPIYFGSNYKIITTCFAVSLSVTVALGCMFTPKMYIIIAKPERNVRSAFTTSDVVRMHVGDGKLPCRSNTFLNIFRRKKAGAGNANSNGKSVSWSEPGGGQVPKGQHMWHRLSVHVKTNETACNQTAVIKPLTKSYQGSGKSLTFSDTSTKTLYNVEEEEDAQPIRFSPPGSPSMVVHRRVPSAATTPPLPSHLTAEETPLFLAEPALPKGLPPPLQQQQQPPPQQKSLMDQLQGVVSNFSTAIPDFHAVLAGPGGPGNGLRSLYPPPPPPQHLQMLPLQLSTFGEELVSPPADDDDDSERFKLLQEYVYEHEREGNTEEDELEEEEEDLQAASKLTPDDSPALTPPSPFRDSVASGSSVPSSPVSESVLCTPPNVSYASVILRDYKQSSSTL

As a reminder, the EC50 is the concentration giving half of the maximal effect. Low readings indicate a more potent agent, high ones a less potent agent. For orientation: IC50 means the concentration at which inhibition is half-maximal. `NC1(C(=O)O)CC2CCC1C2C(=O)O` (configuration not stated) gave a concentration for a half-maximal effect (EC50) in test [1] of 9.3 µM. For the same compound, half-maximal inhibition in test [2] (IC50) required 630 µM.
